Several values for one entry are separate records, joined by “and”; a condition that tells them apart may be missing. Equal entries are not always repeated.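 Briefly, cells in 96-well plates were exposed to five compound concentrations for 48 h, and endpoints were estimated by linear interpolation. GI50: concentration for 50% inhibition of growth. TGI marks complete inhibition of growth.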
Assays:
Assay in all cases: NCI anticancer screen, dose series, 48 h
T-47D breast = test system: T-47D breast
MALME-3M melanoma = test system: MALME-3M melanoma
A498 renal = test system: A498 renal
RPMI-8226 leukemia = test system: RPMI-8226 leukemia
MCF7 breast = test system: MCF7 breast
PC-3 prostate = test system: PC-3 prostate
RXF 393 renal = test system: RXF 393 renal
SF-539 CNS = test system: SF-539 CNS
SF-295 CNS = test system: SF-295 CNS
IGROV1 ovarian = test system: IGROV1 ovarian

Structure (SMILES)	GI50 (T-47D breast)	TGI (T-47D breast)	GI50 (MALME-3M melanoma)	TGI (MALME-3M melanoma)	GI50 (A498 renal)	TGI (A498 renal)	GI50 (RPMI-8226 leukemia)	TGI (RPMI-8226 leukemia)	GI50 (MCF7 breast)	TGI (MCF7 breast)	GI50 (PC-3 prostate)	TGI (PC-3 prostate)	GI50 (RXF 393 renal)	TGI (RXF 393 renal)	GI50 (SF-539 CNS)	TGI (SF-539 CNS)	TGI (SF-295 CNS)	GI50 (IGROV1 ovarian)	TGI (IGROV1 ovarian)	GI50 (SF-295 CNS)
CCNC(=O)C[C@@H]1N=C(c2ccc(Cl)cc2)c2cc(OC)ccc2-n2c(C)nnc21	2.9 µM	> 100 µM	3.49 µM	> 100 µM	1.73 µM	> 69.3 µM	0.367 µM	5.74 µM	0.532 µM	> 100 µM	3.15 µM	> 100 µM	8.9 µM	> 100 µM	2.33 µM	> 100 µM	> 100 µM	12.2 µM	> 100 µM	
Cc1[nH]c(=O)[nH]c(=O)c1N(CCF)CCCl		1340 µM	219 µM and 393 µM	410 µM and 757 µM and 721 µM	247 µM and 311 µM	507 µM and 466 µM and 967 µM	161 µM and 190 µM and 122 µM	515 µM and 838 µM and 1270 µM	140 µM	502 µM and > 250 µM and 851 µM		954 µM	128 µM and 265 µM	296 µM and 662 µM and 596 µM	499 µM and 153 µM	478 µM and 1680 µM and 768 µM	600 µM and > 25 µM and 1140 µM	284 µM	793 µM and 1260 µM and 1270 µM	> 25 µM and 402 µM
COc1ccc(-c2ccc(C3CC(c4ccc(O)cc4)=NN3)o2)c([N+](=O)[O-])c1 (centres undefined)	75 µM	> 100 µM	19.1 µM	51.3 µM	30.4 µM	> 100 µM	11.6 µM	71.9 µM	24.4 µM	74.4 µM	25.9 µM	> 100 µM	23.7 µM	> 100 µM	27.4 µM	97.5 µM	> 100 µM	84.9 µM	> 100 µM	29.9 µM
CCC/C(=N\NC(=S)N1CCN(c2ccccn2)CC1)c1ccccn1		0.389 µM		0.565 µM and 2.07 µM	0.194 µM	3.93 µM and 1.36 µM		0.024 µM and 0.0128 µM		1.41 µM		1.26 µM	0.0102 µM	2.08 µM and 1.38 µM	0.15 µM and 0.145 µM	1.82 µM and 1.11 µM	6.14 µM and 1.26 µM		2.3 µM and 3.11 µM	
COC(=O)/C=C/c1cc(O)c2c(c1)C(C(=O)OC)C(c1ccc(O)c(O)c1)O2 (centres undefined)	1.55 µM	57.9 µM	12.5 µM and 17.7 µM	62 µM and 86.1 µM	2.85 µM and 0.735 µM	16.3 µM and 6.21 µM	0.132 µM	16.5 µM and 10.5 µM	0.0337 µM	82.1 µM and > 100 µM	0.573 µM and 0.817 µM	69 µM and 65.8 µM	0.0472 µM	86.4 µM and > 100 µM	0.255 µM	0.72 µM and 1.19 µM	15.4 µM and 9.85 µM	0.822 µM and 0.509 µM	33.8 µM and > 79.5 µM	0.344 µM and 0.143 µM
CC(C)(C)[Si](C)(C)OCC1CCC(n2cnc3c(NC(=O)c4ccccc4)ncnc32)O1 (centres undefined)		60.6 µM		34.3 µM		35.5 µM		68.5 µM		45.1 µM		52.6 µM		37.8 µM		32.9 µM	35.8 µM		32.7 µM	
O=C(Nc1ccc(Cl)c([N+](=O)[O-])c1)Nc1nc2ccccc2s1	2.48 µM	10.6 µM	2.62 µM	7.36 µM	2.14 µM	8.01 µM	2.93 µM	10.5 µM	3.02 µM	15.5 µM	3.43 µM	13 µM	3.76 µM	11.4 µM	3.77 µM	16.9 µM	5.41 µM	3.62 µM	17.4 µM	2.01 µM
COc1ccc(C(=O)Cn2c(C(=O)c3ccc(OC)cc3)nc3ccccc32)cc1	3.39 µM	> 100 µM	2.91 µM	> 100 µM	1.64 µM	> 100 µM	1.52 µM	8.28 µM	1.36 µM	> 100 µM	2.43 µM	> 100 µM	2.07 µM	> 23.2 µM	2.8 µM	> 100 µM	> 100 µM	5.09 µM	> 100 µM	2.08 µM
COc1cc(/C=C(/C)[N+](=O)[O-])ccc1O	2.07 µM and 2.25 µM	5.05 µM and 5.72 µM	2 µM and 1.53 µM	4.08 µM and 3.58 µM	5.89 µM and 11.6 µM	13.7 µM and 23.8 µM	0.737 µM and 1.73 µM	2.53 µM and 4.25 µM	1.44 µM and 1.37 µM	3.39 µM and 2.9 µM	2.68 µM and 2.74 µM	7.27 µM and 6.86 µM	1.72 µM and 1.8 µM	3.24 µM and 3.31 µM	2 µM and 1.81 µM	4 µM and 3.68 µM	22.4 µM and 8.89 µM	2.89 µM and 1.57 µM	8.54 µM and 5.14 µM	9.45 µM and 2.77 µM
N#CC1=C(N)Oc2cc3c(cc2C1c1cccs1)OCO3 (centres undefined)	0.595 µM	> 70.5 µM	0.58 µM	> 100 µM	0.234 µM	10.2 µM	0.451 µM	40.7 µM	0.343 µM	> 62.3 µM	1.16 µM	> 100 µM	0.311 µM	2.7 µM	0.747 µM	11.2 µM	> 100 µM	1.1 µM	> 100 µM	0.393 µM
Cc1ccc(Nc2nc(NCCO)c3ccccc3n2)cc1C	2.29 µM	10.4 µM	1.85 µM	3.77 µM	0.0535 µM	2.06 µM	2.55 µM	9.46 µM	1.66 µM	16.9 µM	4.24 µM	16.7 µM	3.14 µM	13.7 µM	5.87 µM	19.7 µM	17.5 µM	9.65 µM	23.8 µM	4.37 µM
CCn1c(=O)c(-c2ccn[nH]2)cc2c(C)nc(N)nc21	0.173 µM	0.748 µM	0.167 µM	1.33 µM	0.209 µM	0.726 µM	0.821 µM	12.3 µM	0.389 µM	> 100 µM	0.397 µM	> 100 µM	0.426 µM	2.47 µM	1.77 µM	10.1 µM	3.68 µM	0.32 µM	2.17 µM	0.559 µM
Cc1ccc(C)c(NC(=O)C(=O)C(c2cnc3ccc([N+](=O)[O-])cc3n2)[N+](=O)[O-])c1 (centres undefined)		> 100 µM		> 100 µM		69 µM		39.4 µM		> 100 µM		> 100 µM		> 100 µM		> 100 µM	> 100 µM		83.8 µM	
CC(C)C[C@H](NC(=O)[C@H](Cc1ccccc1)n1ccc(N2CCCCC2)cc1=O)B(O)O	0.781 µM	6.09 µM	0.682 µM	7.95 µM	0.127 µM	0.736 µM	0.321 µM	> 100 µM	0.392 µM	> 100 µM	4.19 µM	> 100 µM	0.284 µM	0.882 µM	0.206 µM	0.604 µM	4.51 µM	5.1 µM	> 100 µM	0.585 µM
CN(C)CCCCN1CCc2c(n(C)c3ccccc23)C1=O		> 51.5 µM and 59.9 µM		43.6 µM and 36.3 µM	> 59 µM and 19.9 µM	> 85.1 µM and 49 µM	61.7 µM and 29.3 µM	93.2 µM and 64.7 µM		> 59.9 µM and 64.7 µM	33 µM and > 68.7 µM	> 100 µM		84.7 µM and > 90.5 µM	50.5 µM and 21.7 µM	68.9 µM and 44 µM	71.9 µM and 49.6 µM		> 100 µM	
O=C(Nc1ccc(-c2nc3cc4ccccc4cc3[nH]2)cc1)c1cccc(Br)c1	4.09 µM	18.1 µM	12.8 µM	28.9 µM	47.1 µM	> 100 µM	10.6 µM	56.8 µM	1.97 µM	10.4 µM	3.02 µM	13.4 µM	1.9 µM	8.28 µM	12.9 µM	26.7 µM	48.1 µM	15 µM	42.2 µM	20.7 µM
Nc1c(C(=O)Nc2ccccc2)sc2nc3c(cc12)CCCCCC3	0.892 µM	20.5 µM	1.29 µM	19.4 µM	0.248 µM	1.31 µM	0.379 µM	15.7 µM	0.288 µM	11.8 µM	0.44 µM	> 100 µM	0.432 µM	2.18 µM	0.231 µM	0.741 µM	1.69 µM	0.863 µM	19.9 µM	0.291 µM
Cc1ccc(NC(c2ccccc2)c2ccc3cccnc3c2O)cc1 (centres undefined)		36 µM		13.8 µM		54.8 µM		19.2 µM		16.2 µM		14.3 µM		22.8 µM		8.18 µM	16.1 µM		14 µM	
O=C1/C(=C/c2cccc([N+](=O)[O-])c2)COc2ccc(O)c(O)c21	1.17 µM	3.92 µM	1.49 µM	3.04 µM	1.42 µM	3.26 µM	0.301 µM	0.93 µM	0.665 µM	2.96 µM	1.16 µM	4.14 µM	1.28 µM	2.69 µM	1.61 µM	3.57 µM	11.2 µM	1.02 µM	2.97 µM	3.27 µM
COc1cc2oc(=O)cc(C)c2cc1[N+](=O)[O-]		77.2 µM		49.5 µM		> 84 µM		> 75.3 µM		> 100 µM		> 67.6 µM		33.8 µM		57.7 µM	> 100 µM		> 84.8 µM	
C[Si](C)(C)C#CCO[Si](C)(C)C		> 100 µM		> 100 µM		> 100 µM		> 79.8 µM		> 100 µM		> 100 µM		> 100 µM		52.3 µM	> 100 µM		36.8 µM	
Cc1cc2c(c3c1c1ccccc1n3C)C(=O)C=CC2=O		48.8 µM		> 82.6 µM		> 100 µM		26.5 µM		25.8 µM		36.3 µM		30.5 µM		71 µM	> 88.4 µM		> 78.2 µM	
